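Following 48 hours of exposure in 96-well plates, responses at five concentrations were used to interpolate endpoints linearly. GI50 marks 50% less growth. TGI marks complete inhibition of growth.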

Common to all, as to experiment: NCI tumour cell line growth inhibition, 48 h
Experiment [1] has as its system MALME-3M melanoma.
Experiment [2] concerns COLO 205 colon.
Experiment [3] concerns SK-MEL-2 melanoma.
In experiment [4] the test system is CCRF-CEM leukemia.
Experiment [5] concerns PC-3 prostate.
For experiment [6], the system named is SF-295 CNS.
The test system of experiment [7] is UACC-257 melanoma.
The test system of experiment [8] is T-47D breast.
The test system of experiment [9] is M14 melanoma.
Experiment [10] deals with HL-60(TB) leukemia.

On to `O=c1oc2ccc(F)cc2c(=O)n1-c1ccc(Br)cc1F`, for which the GI50 in experiment [1] is 0.317 µM; in experiment [2] it was 4.03 µM; in [3] it was 0.46 µM; in [4] it was 2.72 µM; in [5] it was 1.52 µM; in experiment [6], 1.82 µM. Also, the GI50 was 0.528 µM in experiment [7], 0.651 µM in [8] and 0.434 µM in experiment [9]. The TGI in experiment [1] was 2.03 µM; in experiment [2] it was 15.5 µM; in [3], 3.98 µM; in experiment [4], > 100 µM; in [5], 7.42 µM; in experiment [6], 3.63 µM. Moreover, the TGI was 7.37 µM in [7], 7.61 µM in experiment [8] and 5.08 µM in [9].
As for `COc1ccc(C2ONC3=NCCN32)cc1` (stereo not drawn), the GI50 is > 100 µM in experiment [1]; 45.9 µM in experiment [2]; > 100 µM in experiment [3]; 26.6 µM in experiment [4]; 55.4 µM in experiment [5]; 93.4 µM in [6]. Also, the GI50 in experiment [7] was > 100 µM; in experiment [8] it was 99.4 µM; in experiment [9], > 100 µM. The TGI in [1] is > 100 µM; in experiment [2], > 100 µM; in experiment [3], > 100 µM; in experiment [4], 61.7 µM; in experiment [5] it was > 100 µM; in [6], > 100 µM. Moreover, the TGI in experiment [7], in experiment [8] and in experiment [9] was > 100 µM in each case.
As for `COc1cc(O)c(C(C)=O)c(O)c1`, the TGI in experiment [1], in [2], in experiment [3], in experiment [5], in experiment [6] and in experiment [7] was > 100 µM in each case. The TGI in experiment [8] and in [9] was > 100 µM throughout.
On to `Cn1cc(CO)c2ccccc21`, for which the GI50 in [10] is 32.5 µM; in experiment [2], 30.3 µM; in experiment [3], 36.2 µM; in experiment [4], > 100 µM; in experiment [5] it was 85 µM; in experiment [6] it was 34.2 µM. Besides, the GI50 in experiment [7] is > 100 µM; in experiment [8], 62.1 µM; in experiment [9], 31.6 µM. Besides, the TGI in [10], in [2], in experiment [3], in experiment [4], in experiment [5] and in [6] was > 100 µM each time. Also, the TGI in experiment [7], in experiment [8] and in [9] was > 100 µM throughout.
For `CCN(CC)CCOc1ccc(/C=C2\CC3C4CC=C5C[C@@H](OC(C)=O)CC[C@]5(C)C4CC[C@]3(C)C2=O)cc1OC` (stereo partly drawn), the GI50 was 1.96 µM in experiment [1]; 15.9 µM in experiment [2]; 5.1 µM in [3]; 4.16 µM in [5]; 2.02 µM in experiment [6]; 6.97 µM in experiment [7]. For the same compound, the GI50 in experiment [8] was 38.2 µM; in experiment [9] it was 2.09 µM. For the same compound, the TGI was 3.47 µM in experiment [1]; > 100 µM in experiment [2]; > 100 µM in experiment [3]; 26.9 µM in [5]; 3.94 µM in experiment [6]; 31.6 µM in experiment [7]. Further, the TGI is > 100 µM in experiment [8] and 4.36 µM in [9].
Regarding `COc1ccc(NC(=O)c2sc3nc4c(cc3c2N)CCCC4)cc1`, the GI50 in experiment [10] was 0.252 µM; in [2], 0.876 µM; in experiment [3], 0.369 µM; in experiment [4] it was 0.322 µM; in [5], 0.822 µM; in [6], 0.314 µM. Also, the results for the GI50 in [8] and in [9] were 0.547 µM and 0.254 µM, respectively. The TGI was 0.624 µM in experiment [10]; 6.46 µM in [2]; 4.69 µM in [3]; > 100 µM in [4]; > 100 µM in experiment [5]; 20.2 µM in experiment [6]. Further, the TGI in experiment [8] worked out at 96.9 µM; in experiment [9] it was 1.28 µM.
Consider `O=C(Nc1ccc(Cl)cc1)Nc1ccccc1CNc1nc(Nc2ccc(OCCN3CCCC3)cc2)ncc1Cl`, for which the GI50 in experiment [1] was 0.828 µM; in [10], 1.05 µM; in [3], 8.99 µM; in [4], 1.32 µM; in [5] it was 1.07 µM; in [6], 7.65 µM. Besides, the figures for the GI50 in experiment [7], in experiment [8] and in experiment [9] were 0.993 µM, 6.47 µM and 0.832 µM, respectively. In addition, the TGI in experiment [1] was determined as 1.59 µM; in experiment [10] it was 2.19 µM; in experiment [3], 17.4 µM; in [4] it was 3.43 µM; in [5], 2.35 µM; in experiment [6], 14.6 µM. In addition, the TGI in experiment [7] stood at 2 µM; in experiment [8], 18 µM; in experiment [9], 1.68 µM.
As to `Nc1ccn([C@@H]2C(F)=C(CO)[C@@H](O)[C@H]2O)c(=O)n1`, the GI50 in experiment [1] was 9.57 µM; in experiment [10], 0.889 µM; in experiment [2], 0.838 µM; in experiment [3], > 100 µM; in experiment [6], 4.2 µM; in experiment [8], 5.02 µM. For the same compound, the GI50 in [9] was 0.859 µM. Moreover, the TGI in experiment [1], in [10], in experiment [2], in [3], in experiment [6] and in [8] was > 100 µM each time. For the same compound, the TGI in experiment [9] is > 100 µM.
As for `CC12OC(C(=O)C13CCC3)C1C(=O)c3ccccc3C(=O)C12` (stereo not drawn), the GI50 in [1] was 33 µM; in experiment [10] it was 52 µM; in experiment [2], > 100 µM; in experiment [3] it was > 100 µM; in experiment [4], 36.9 µM; in experiment [5], 70.7 µM. In addition, the GI50 in [7] was 44 µM; in [8] it was 44 µM; in experiment [9], > 100 µM. Besides, the TGI in experiment [1], in [10], in experiment [2], in experiment [3], in experiment [4] and in [5] was > 100 µM in each case. For the same compound, the TGI in [7], in experiment [8] and in [9] was > 100 µM each time.
Regarding `COc1cc([C@H]2c3[nH]c4ccccc4c3C[C@H]3COC(=O)N32)cc(OC)c1O`, the TGI in [1] was > 100 µM; in [10], 14.5 µM; in [2], 37.5 µM; in experiment [4], 12.4 µM; in experiment [5], > 100 µM; in experiment [6], 81.8 µM. Besides, the TGI in experiment [7], in [8] and in experiment [9] was > 100 µM throughout.
As for `O=C(/C=C/c1cn(-c2ccccc2)nc1-c1ccc([N+](=O)[O-])cc1)c1ccc(Cl)cc1`, the GI50 is 2.44 µM in experiment [1]; 5.03 µM in experiment [3]; 2.68 µM in [6]; > 100 µM in experiment [7]; 1.22 µM in experiment [8]. The TGI in [1] is 6.59 µM; in experiment [10], > 100 µM; in experiment [3], 23 µM; in [6], 12.3 µM; in experiment [7], > 100 µM; in experiment [8], > 100 µM.
Consider `CCCn1cnc2c(SCc3ccccc3)nc(N)nc21`, for which the GI50 in [1] is > 100 µM; in [10], 65.3 µM; in experiment [2] it was > 100 µM; in experiment [4] it was 72.9 µM; in [5] it was 67.9 µM; in [6] it was 32.1 µM. Also, the GI50 is > 100 µM in [7], 56.9 µM in experiment [8] and > 100 µM in [9]. The TGI in experiment [1], in [10], in experiment [2], in [4], in experiment [5] and in experiment [6] was > 100 µM in each case. The TGI in [7], in [8] and in [9] was > 100 µM in each case.
`Cc1cc(=O)oc2cc(OCCn3c(C)nn(-c4ccc(Cl)cc4)c3=O)ccc12`: the GI50 in [1] is 3.85 µM; in experiment [2] it was 2.39 µM; in [3], 18.2 µM; in experiment [5], 8.13 µM; in [6] it was 4.73 µM; in [8] it was 7.55 µM. Moreover, the GI50 in experiment [9] was 2.36 µM. Besides, the TGI was > 100 µM in experiment [1]; 7.34 µM in experiment [2]; > 100 µM in experiment [3]; > 100 µM in experiment [5]; > 100 µM in [6]; > 100 µM in experiment [8]. For the same compound, the TGI in [9] is > 100 µM.
On to `NC(N)=N/N=C/c1c(-c2ccc(Cl)c([N+](=O)[O-])c2)nc2n1CCS2`, for which the GI50 in experiment [10] is 2.34 µM; in [2], 15.1 µM; in experiment [4], 2.6 µM; in experiment [5] it was 2.93 µM; in experiment [6], 7 µM; in [7], 20.6 µM. Also, the GI50 is 21.6 µM in [8] and 15.4 µM in [9]. Moreover, the TGI turned out to be 6.27 µM in experiment [10]; 39.8 µM in experiment [2]; 9.93 µM in [4]; 15.1 µM in experiment [5]; 20.8 µM in [6]; 51.8 µM in experiment [7]. Moreover, the TGI in [8] was found to be 50.2 µM; in experiment [9], 29.1 µM.
In the case of `C=C(CNCCc1ccc(O)cc1)[C@@H]1CC[C@]2(CO)CC[C@]3(C)[C@H](CC[C@@H]4[C@@]5(C)CCC(N)C(C)(C)[C@@H]5CC[C@]43C)[C@@H]12` (stereo partly drawn), the GI50 in experiment [1] is 1.58 µM; in experiment [2] it was 1.64 µM; in experiment [3], 1.79 µM; in experiment [4], 0.28 µM; in experiment [5], 1.44 µM; in experiment [6], 1.73 µM. In addition, the values for the GI50 in experiment [7], in experiment [8] and in experiment [9] were 0.195 µM, 1.64 µM and 1.75 µM, respectively. Further, the TGI was 3.09 µM in experiment [1]; 3.3 µM in experiment [2]; 3.4 µM in experiment [3]; 1.23 µM in experiment [4]; 2.98 µM in experiment [5]; 3.3 µM in [6]. For the same compound, the TGI was 0.517 µM in [7], 3.58 µM in [8] and 3.33 µM in experiment [9].
As to `Cc1ccc(-n2c3c(c4c(CN5CCOCC5)c(O)ccc42)CCc2ccccc2C3=O)cc1`, the GI50 was 19.9 µM in experiment [10]; > 100 µM in [2]; > 100 µM in [3]; 42.4 µM in experiment [5]; > 100 µM in experiment [6]; > 100 µM in experiment [7]. The GI50 in experiment [8] and in experiment [9] was > 100 µM in each case. Besides, the TGI was 92.2 µM in experiment [10]; > 100 µM in experiment [2]; > 100 µM in experiment [3]; > 100 µM in experiment [5]; > 100 µM in experiment [6]; > 100 µM in [7]. In addition, the TGI in [8] and in [9] was > 100 µM throughout.
Take `Fc1c[c-]c(-c2ccccn2)c(F)c1.[CH3-].[Pt+2].c1ccc(P(C[PH+](c2ccccc2)c2ccccc2)c2ccccc2)cc1`: the GI50 in [1] is 0.342 µM; in [10], 0.38 µM; in experiment [2], 0.485 µM; in experiment [3] it was 0.695 µM; in experiment [5] it was 0.373 µM; in experiment [6], 0.708 µM. Moreover, the GI50 is 0.696 µM in experiment [7], 0.474 µM in experiment [8] and 0.71 µM in [9]. Moreover, the TGI was found to be 0.919 µM in experiment [1]; 1.56 µM in [10]; 2.07 µM in [2]; 1.89 µM in experiment [3]; 1.53 µM in [5]; 1.82 µM in experiment [6]. For the same compound, the TGI was determined as 2.93 µM in experiment [7], 3.27 µM in [8] and 2.31 µM in [9].
As for `NC(=O)C(=O)n1ncc(Cl)c(Cl)c1=O`, the TGI in experiment [1] was 38.7 µM; in experiment [10] it was 17.7 µM; in experiment [2] it was > 51.1 µM; in experiment [3], 30.8 µM; in experiment [4], 26.1 µM; in experiment [6], 20.3 µM. The TGI in experiment [7] is 58.4 µM; in experiment [8], > 100 µM; in [9] it was 46.9 µM.

Values taken from PubChem BioAssay (NCI).
